The test system of one test is H9/HIV-1IIIB. The conditions noted are these: previously reported; cited from earlier work.
The test system of test [1] is panel of 51 Env-pseudotyped viruses. The test is described as follows: microbe, parasite or virus in culture. The settings on record: Human immunodeficiency virus 1, read-out: IC50 range over the pseudovirus panel. In kind it is cell-based.
Test [2] deals with HIV-1 Env pseudovirus QB726.70M.ENV.C4. The settings on record: QB726.70M.ENV.C4, subtype A, NIH # 11888; previously published ref 18; cited from earlier work.
Test [3] concerns HIV-1 Env pseudovirus QF495.23M.ENV.A1. The conditions noted are these: QF495.23M.ENV.A1, subtype A, NIH # 11890; previously published ref 18; cited from earlier work.
Test [4] concerns HIV-1 Env pseudovirus QF495.23M.ENV.B2. The conditions noted are these: QF495.23M.ENV.B2, subtype A, NIH # 11892; previously published ref 18; cited from earlier work.
In test [5] the test system is HIV-1 Env pseudovirus BG505-T332N. The settings on record: subtype A, previously published ref 18; cited from earlier work.
The subject of test [6] is HIV-1 Env pseudovirus QG393.60M.ENV.A1. The settings on record: QG393.60M.ENV.A1, subtype A2/D, NIH # 11905; previously published ref 18; cited from earlier work.
Test [7] deals with HIV-1 Env pseudovirus QG393.60M.ENV.B7. The settings on record: QG393.60M.ENV.B7, subtype A2/D, NIH # 11906; previously published ref 18; cited from earlier work.
Test [8] relates to HIV-1 Env pseudovirus QG393.60M.ENV.B8. The conditions noted are these: QG393.60M.ENV.B8, subtype A2/D, NIH # 11907; previously published ref 18; cited from earlier work.
Test [9] deals with HIV-1 Env pseudovirus CRF02_AG clone 266. The settings on record: CRF02_AG clone 266, subtype A/G, NIH # 11602; previously published ref 18; cited from earlier work.
Test [10] relates to HIV-1 Env pseudovirus CRF02_AG clone 278. The conditions noted are these: CRF02_AG clone 278, subtype A/G, NIH # 11605; previously published ref 18; cited from earlier work.
Test [11] has as its system HIV-1 Env pseudovirus p1058_11.B11.1550. The conditions noted are these: p1058_11.B11.1550, subtype B, NIH # 11563, R5X4-tropic; previously published ref 18; cited from earlier work.
In test [12] the test system is HIV-1 Env pseudovirus QH0692, clone 42. The settings on record: QH0692, clone 42, subtype B, NIH # 11018; previously published ref 18; cited from earlier work.
For test [13], the system named is HIV-1 Env pseudovirus AC10.0, clone 29. The settings on record: AC10.0, clone 29, subtype B, NIH # 11024; previously published ref 18; cited from earlier work.
Test [14] has as its system HIV-1 Env pseudovirus pTHRO4156 clone 18. The settings on record: pTHRO4156 clone 18, subtype B, NIH # 11037; previously published ref 18; cited from earlier work.
The subject of test [15] is HIV-1 Env pseudovirus pCAAN5342 clone A2. The settings on record: pCAAN5342 clone A2, subtype B, NIH # 11038; previously published ref 18; cited from earlier work.
Test [16] has as its system HIV-1 Env pseudovirus SC422661.8. The settings on record: SC422661.8, subtype B, NIH # 11058; previously published ref 18; cited from earlier work.
The test system of test [17] is HIV-1 Env pseudovirus ZM214M.PL15. The settings on record: ZM214M.PL15, subtype C, NIH # 11310; previously published ref 18; cited from earlier work.
The subject of test [18] is HIV-1 Env pseudovirus ZM135M.PL10a. The settings on record: subtype C, NIH # 11315, previously published ref 18; cited from earlier work.
For test [19], the system named is HIV-1 Env pseudovirus CAP210.2.00.E8. The conditions noted are these: CAP210.2.00.E8, subtype C, NIH # 11317; previously published ref 18; cited from earlier work.
In test [20] the test system is HIV-1 Env pseudovirus QB099.391M.ENV.C8. The settings on record: QB099.391M.ENV.C8, subtype C, NIH # 11909; previously published ref 18; cited from earlier work.
Test [21] has as its system HIV-1 Env pseudovirus QD435.100M.ENV.E1. The conditions noted are these: QD435.100M.ENV.E1, subtype D, NIH # 11918; previously published ref 18; cited from earlier work.
The subject of test [22] is HIV-1 Env pseudovirus BF535.W6M.ENV.A1. The settings on record: BF535.W6M.ENV.A1, subtype D/A, NIH # 11517 (infant); previously published ref 18; cited from earlier work.

`CC1(C)CC(NC(=O)C(=O)Nc2ccc(Cl)cc2)CC(C)(C)N1` [NBD-556]: the “inhibition of cell-to-cell HIV-1 transmission” value with H9/HIV-1IIIB is “failed to do so”.

What is called IC50 is the concentration at which inhibition is half-maximal. Regarding `Cc1nc([C@H](NC(=O)c2ccc(-c3ccc(Cl)cc3)[nH]2)[C@@H]2CCCCN2)sc1CO` [NBD-11021A2], the IC50 in [1] is 0.32 to 4.4 µM; in test [2] it was 1.3 ± 0.3 µM; in [3], 1.3 ± 0.4 µM; in [4], 0.6 ± 0.4 µM; in [5], 1 ± 0.1 µM; in [6], 0.41 ± 0.2 µM. The 50% inhibitory concentration (IC50) in test [7] is 0.8 ± 0.3 µM; in test [8], 0.48 ± 0.2 µM; in [9] it was 1 ± 0.2 µM; in test [10], 1.3 ± 0.5 µM; in [11], 1.1 ± 0.8 µM; in [12], 0.52 ± 0.1 µM. In addition, the concentration for half-maximal inhibition (IC50) in test [13] was 0.32 ± 0.01 µM; in test [14] it was 1 ± 0.2 µM; in [15], 0.6 ± 0.07 µM; in test [16], 0.33 ± 0.01 µM; in test [17] it was 2.7 ± 0.2 µM; in [18], 2.7 ± 1.2 µM. Besides, the concentration for half-maximal inhibition (IC50) in test [19] is 2.8 ± 0.7 µM; in test [20], 1.8 ± 0.5 µM; in [21], 3.7 ± 0.1 µM; in [22], 2.8 ± 0.6 µM.

The values are drawn from publication PMC5079829 (Bioorganic & medicinal chemistry, 2016).
